The text below walks through data of publication doi:10.1101/2023.07.10.548257 (bioRxiv, 2024).

SMILES strings stand for the structures.

The experiment addresses T1, full-length SHP2^R138Q (Homo sapiens, UniProt Q06124, R138Q).
T1 construct: Full-length SHP2 constructs were diluted in assay buffer; His6-TEV (N, cleaved yes); made in house; host or cells: E. coli BL21(DE3)
T1 sequence (Q06124 1-593 R138Q): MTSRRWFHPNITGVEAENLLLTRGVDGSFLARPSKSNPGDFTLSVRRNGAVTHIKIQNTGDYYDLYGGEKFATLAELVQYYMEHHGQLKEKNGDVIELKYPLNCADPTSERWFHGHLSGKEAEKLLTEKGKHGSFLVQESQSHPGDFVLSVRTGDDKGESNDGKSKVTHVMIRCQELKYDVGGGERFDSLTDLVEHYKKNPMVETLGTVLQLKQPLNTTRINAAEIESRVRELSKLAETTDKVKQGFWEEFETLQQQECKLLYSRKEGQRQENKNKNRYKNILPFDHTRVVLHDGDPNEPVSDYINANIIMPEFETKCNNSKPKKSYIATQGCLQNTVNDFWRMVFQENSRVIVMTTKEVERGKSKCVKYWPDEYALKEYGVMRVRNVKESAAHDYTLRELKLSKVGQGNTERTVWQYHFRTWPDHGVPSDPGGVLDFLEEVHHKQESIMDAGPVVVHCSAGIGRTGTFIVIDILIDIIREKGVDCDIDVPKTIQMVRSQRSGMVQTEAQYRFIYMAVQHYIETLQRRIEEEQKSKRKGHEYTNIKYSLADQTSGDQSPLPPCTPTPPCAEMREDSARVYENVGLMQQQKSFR
Put plainly: SHP2 activation assay using phosphopeptides (DiFMUP), SHP2 R138Q. Conditions: activation of full-length SHP2 R138Q (0.05 nM) by phosphopeptide; DiFMUP substrate; HEPES pH 7.2 assay buffer; mean of N (column N). In kind it is biochemical. The protocol: Emitted fluorescence at 455nm was recorded every 25 seconds in a span of 50 minutes using a BioTek Synergy Neo2 multi-mode reader. […]
In all cases, the linear region of the reaction progress curve was determined by visual inspection and fit to a line. These slopes were converted from absorbance or fluorescence units as a function of time to product formation as a function of time using standard curves measured with the reaction products (p-nitrophenol and 6,8-difluoro-7-hydroxy-4-methylcoumarin). […]
SHP2 activation assays using phosphopeptides
Full-length SHP2 constructs were diluted in assay buffer (60 mM HEPES pH 7.2, 75 mM KCl, 75 mM NaCl,1 mM EDTA, 0.05% Tween-20, with 0.5 mM TCEP freshly added) to a 2X concentration of 0.1 nM. Peptides were serially diluted in assay buffer, with the last point of the concentration series fully without peptide. 15 μL of peptide and 15 μL of 800 μM DiFMUP was added to a black 96-well half area plate. Right before starting the plate reader assay, 30 μL SHP2 was added to each well a Supplementary Information - page 4 of 18 […]
final concentration of 0.05nM. Kinetic measurements (Ex 358/Em […]) were taken on a BioTek Neo2 plate reader every 25 seconds for 6 minutes.
Cloning of the PD-1 ITIM scanning mutagenesis library […]
described previously for other peptide display libraries in the eCPX system (2, 4). A series of oligonucleotides spanning the peptide-coding sequence was synthesized with a different NNS codon in place of each wild-type codon (11 oligonucleotides in total). These degenerate primers were pooled then used to amplify a library of linear DNA encoding mutant ITIM fusions to the eCPX scaffold protein.
This library was then cloned into the pBAD33 vector used for surface display.
SH2 specificity profiling using bacterial peptide display
Preparation of bacterial cells
Electrocompetent MC1061 cells were transformed with ~100 ng of the respective library. After 1 hour recovery in 1 mL LB, cells were further diluted into 250 mL LB + 0.1% chloramphenicol. 1.8 mL of overnight culture was used to inoculate 100 mL LB + 0.1% chloramphenicol, and grown until OD600 reached 0.5. 20 mL of cell suspension was induced at 25 °C using a final concentration of 0.4% arabinose until the OD600 ~ 1 (after approximately 4 hours). The cells were spun down at 4000 rpm for 15 minutes, and the pellet was resuspended in PBS so that the OD600 ~1.5. The cells were stored in the fridge and used within a week.
For each sample, 75 μL of Dynabeads™ FlowComp™ Flexi Kit were washed twice in 1 mL SH2 buffer (50 mM HEPES pH 7.5, 150 mM NaCl, 1 mM TCEP, and 0.2% BSA) on a magnetic rack.
The beads were then resuspended in 75 μL of SH2 buffer. SH2 domains were thawed quickly and 20 μM of protein was added to the beads. SH2 buffer was added up to 150 μL, and the suspension was incubated for 1 hour at 4 °C while rotating. After 1 hour, the suspension was placed on a magnetic rack and washed twice with 1 mL SH2 buffer.
Preparing the phosphorylated cells
150 μL of prepared cells per sample were spun down for 4000 rpm for 5 minutes at 4 °C.
Kinase screen buffer was prepared (50 mM Tris, 10 mM magnesium chloride, 150 mM sodium chloride; add 2 mM sodium orthovanadate and 1 mM TCEP fresh) and the cells of each sample were resuspended in 100 μL kinase screen buffer. Kinases c-Src, c-Abl, AncSZ, Eph1B were added to a final concentration of 2.5 µM each, creatine phosphate was added to a final concentration of 5 mM, and phosphokinase was added to a final concentration of 50 µg/mL. The suspension was incubated at 37 °C for 5 minutes before ATP was added to a final concentration of 1 mM. This mixture was incubated at 37 °C for 3 hours. After 3 hours, EDTA was added to a final concentration of 25 mM to quench the reaction. The input library control sample was not phosphorylated. These cells were spun down at 4000 rpm for 15 minutes at 4 °C. The cells were then resuspended in 100 µL of SH2 buffer […]
Usually EC50 stands for the concentration needed to bring the measured effect to its halfway point. Regarding `CC[C@H](C)[C@H](NC(=O)[C@@H](NC(=O)[C@H](C)NC(=O)[C@H](Cc1ccc(OP(=O)(O)O)cc1)NC(=O)[C@@H](NC(=O)[C@@H]1CCCN1C(=O)[C@H](CCC(=O)O)NC(=O)[C@@H]1CCCN1C(=O)[C@H](CO)NC(=O)[C@@H](NC(C)=O)C(C)C)[C@@H](C)CC)[C@@H](C)O)C(=O)N[C@@H](CC(=O)O)C(=O)N[C@@H](CC(=O)O)C(=O)N[C@@H](CC(C)C)C(N)=O`, the concentration giving a half-maximal response (EC50) was found to be 27.3 µM.

For the compound `CC(=O)N[C@@H](CO)C(=O)N[C@H](C(=O)NCC(=O)N[C@@H](CO)C(=O)N[C@H](C(=O)N[C@@H](CC(=O)O)C(=O)N[C@@H](Cc1ccc(OP(=O)(O)O)cc1)C(=O)N[C@@H](CC(C)C)C(=O)N[C@@H](C)C(=O)N[C@@H](CC(C)C)C(=O)N[C@@H](CC(=O)O)C(=O)N[C@@H](Cc1ccccc1)C(=O)N[C@@H](CCC(N)=O)C(N)=O)C(C)C)[C@@H](C)O`, the concentration for a half-maximal effect (EC50) worked out at 5.98 µM.

`CC[C@H](C)[C@H](NC(=O)[C@H](Cc1ccc(OP(=O)(O)O)cc1)NC(=O)[C@H](CC(N)=O)NC(=O)[C@H](CC(C)C)NC(=O)CNC(=O)[C@H](CC(N)=O)NC(=O)[C@H](CCC(=O)O)NC(=O)[C@H](CC(C)C)NC(C)=O)C(=O)N[C@@H](CC(=O)O)C(=O)N[C@@H](CC(C)C)C(=O)N[C@@H](CC(=O)O)C(=O)N[C@@H](CC(C)C)C(=O)N[C@H](C(N)=O)C(C)C`: the EC50 stood at 1.43 µM.

Consider `CC[C@H](C)[C@H](NC(=O)[C@H](CC(N)=O)NC(=O)[C@@H](NC(=O)[C@H](Cc1ccc(OP(=O)(O)O)cc1)NC(=O)[C@H](CCC(=O)O)NC(=O)CNC(=O)[C@@H]1CCCN1C(=O)[C@H](CO)NC(=O)[C@H](CCCCN)NC(=O)[C@@H]1CCCN1C(C)=O)C(C)C)C(=O)N[C@@H](CCC(=O)O)C(=O)N[C@@H](Cc1ccccc1)C(=O)NCC(N)=O`, for which the EC50 was found to be 29.6 µM.

With `CSCC[C@H](NC(=O)[C@H](CC(C)C)NC(=O)[C@H](CCC(N)=O)NC(=O)[C@H](C)NC(=O)[C@H](Cc1ccc(OP(=O)(O)O)cc1)NC(=O)[C@H](CC(N)=O)NC(=O)[C@H](CC(C)C)NC(=O)[C@H](C)NC(=O)[C@H](C)NC(=O)[C@H](CCCCN)NC(=O)[C@H](CCCCN)NC(C)=O)C(=O)N[C@@H](Cc1ccccc1)C(=O)N1CCC[C@H]1C(N)=O`, the EC50 is 4.2 µM.

With `CC(=O)N[C@@H](C)C(=O)N[C@@H](CCCCN)C(=O)N[C@@H](CO)C(=O)NCC(=O)N[C@@H](C)C(=O)N[C@H](C(=O)N[C@@H](Cc1ccc(OP(=O)(O)O)cc1)C(=O)N[C@@H](CO)C(=O)N[C@@H](CCC(=O)O)C(=O)N[C@@H](CC(C)C)C(=O)N[C@@H](CC(N)=O)C(=O)N[C@@H](Cc1ccccc1)C(=O)NCC(N)=O)C(C)C`, the EC50 is 166 µM.

Turning to `CC(=O)N1CCC[C@H]1C(=O)N[C@H](C(=O)N[C@@H](Cc1ccccc1)C(=O)N[C@@H](CO)C(=O)N[C@H](C(=O)N[C@@H](CC(=O)O)C(=O)N[C@@H](Cc1ccc(OP(=O)(O)O)cc1)C(=O)NCC(=O)N[C@@H](CCC(=O)O)C(=O)N[C@@H](CC(C)C)C(=O)N[C@@H](CC(=O)O)C(=O)N[C@@H](Cc1ccccc1)C(=O)N[C@@H](CCC(N)=O)C(N)=O)C(C)C)C(C)C`, the 50% effective concentration (EC50) was 6.55 µM.

`CC[C@H](C)[C@H](NC(=O)[C@@H](NC(=O)[C@H](C)NC(=O)[C@H](Cc1ccc(OP(=O)(O)O)cc1)NC(=O)[C@H](CCC(=O)O)NC(=O)[C@@H](NC(=O)[C@H](CCC(N)=O)NC(=O)[C@H](CCC(=O)O)NC(=O)[C@@H]1CCCN1C(=O)[C@@H](NC(C)=O)C(C)C)[C@@H](C)O)[C@@H](C)O)C(=O)N[C@H](C(=O)N[C@@H](Cc1ccccc1)C(=O)N1CCC[C@H]1C(N)=O)C(C)C`: the EC50 is 6.26 µM.

With `CC[C@H](C)[C@H](NC(=O)[C@H](CC(=O)O)NC(=O)[C@H](C)NC(=O)[C@H](Cc1ccc(OP(=O)(O)O)cc1)NC(=O)[C@H](CCCCN)NC(=O)[C@@H](NC(=O)[C@H](CC(=O)O)NC(=O)CNC(=O)[C@H](CCCCN)NC(=O)[C@H](CCSC)NC(C)=O)C(C)C)C(=O)N[C@@H](CCC(=O)O)C(=O)N[C@@H](CO)C(=O)N[C@@H](CO)C(N)=O`, the 50% effective concentration (EC50) worked out at 120 µM.
